Reference: patent US11629171B2, “Beta-hairpin peptidomimetics” (POLYPHOR AG, priority 2017, dated 2023)
In brackets after ≈: the same amount, converted by molar mass. Where a SMILES comes first, the peptide text is derived from it. Bridges are numbered along the chain shown (N, C = ends). Roman numbers before positions name the chains, in order. [ ]: non-standard residue; d: D form. Pen = CC(C)(S)[C@H](N)C(=O)O; Hiv = CC(C)[C@H](O)C(=O)O; dDab = NCC[C@@H](N)C(=O)O; Dab = NCC[C@H](N)C(=O)O; Abu = CC[C@H](N)C(=O)O; Dap = NC[C@H](N)C(=O)O

Columns and labels:
male ICR mice = experiment: Tolerability in a mouse model (Maximum Tolerated Dose assay); format: in vivo; conditions: groups of 3
Procedure, shortened: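 Groups of 3 male ICR mice weighing 23±3 g received two subcutaneous doses, 12 h apart, of 30 or 40 mg/kg in saline adjusted to pH 6.5-7.6. Observation for 30 min after each dose covered autonomic effects and acute toxicity, including death.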

[1] = tested on: Klebsiella pneumoniae 968733; format: cell-based; conditions: 968733
Procedure, shortened: (§1)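 MIC in μg/mL, read as no visible growth after 18-20 hours at 35° C. Peptides were serially diluted two-fold in MH-II broth plus P-80 (0.002% final, v/v) and inoculated at about 10^6 CFU/mL following the CLSI broth microdilution standard.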

[2] = tested on: Klebsiella pneumoniae SSI #3010; format: cell-based; conditions: SSI #3010
Procedure, shortened: as §1

[3] = tested on: Escherichia coli ATCC 25922; format: cell-based; conditions: ATCC 25922
Procedure, shortened: as §1

Escherichia coli 926415 = format: cell-based; conditions: 926415
Procedure, shortened: as §1

[4] = tested on: Enterobacter cloacae 848840; format: cell-based; conditions: 848840
Procedure, shortened: as §1

[5] = tested on: Pseudomonas aeruginosa ATCC 27853; format: cell-based; conditions: ATCC 27853
Procedure, shortened: as §1

[6] = tested on: Acinetobacter baumannii 872842; format: cell-based; conditions: 872842
Procedure, shortened: as §1

[7] = tested on: Acinetobacter baumannii DSM 30008; format: cell-based; conditions: DSM 30008
Procedure, shortened: as §1

[8] = tested on: human red blood cells (hRBC); experiment: Hemolysis; format: cell-based; conditions: red cells of human, 1 h, 200
Procedure, shortened: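 Hemoglobin release from PBS-washed hRBC at 20% (v/v), incubated 1 h at 37° C with peptides at 200 μg/mL, is measured at 540 nm. Values are blank corrected and given as a fraction of Triton X-100 lysis × 100%.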

[9] = 2 × 30 mg/kg s.c. at a 12-hr interval
[10] = 2 × 40 mg/kg s.c. at a 12-hr interval

SMILES	Mortality and dose (male ICR mice; [9])	MIC [1] [µg/mL]	MIC [2] [µg/mL]	MIC [3] [µg/mL]	MIC (Escherichia coli 926415) [µg/mL]	MIC [4] [µg/mL]	MIC [5] [µg/mL]	MIC [6] [µg/mL]	MIC [7] [µg/mL]	Hemolysis at 200 μg/mL [8] [%]	Mortality and dose (male ICR mice; [10])	Klebsiella pneumoniae SSI #3010 MIC [2] [µg/mL]	Escherichia coli ATCC 25922 MIC [3] [µg/mL]	Pseudomonas aeruginosa ATCC 27853 MIC [5] [µg/mL]	Acinetobacter baumannii DSM 30008 MIC [7] [µg/mL]
CC(=O)N[C@H](C(=O)N[C@H](C(=O)N[C@@H](Cc1ccc(O)cc1)C(=O)N[C@H]1CSSC[C@@H](C(=O)N[C@H](C(=O)N[C@@H](C)C(=O)N[C@H](C(N)=O)[C@@H](C)O)C(C)C)NC(=O)[C@H](Cc2c[nH]c3ccccc23)NC(=O)[C@H](CO)NC(=O)[C@@H](CCN)NC(=O)[C@H](CCC(=O)N[C@@H](CCN)C(=O)N[C@H](C(=O)N[C@@H](CN)C(=O)N[C@H]2CCNC(=O)[C@H]([C@@H](C)O)NC(=O)[C@H](CCN)NC(=O)[C@H](CCN)NC(=O)[C@H](CC(C)C)NC(=O)[C@@H](CC(C)C)NC(=O)[C@H](CCN)NC2=O)[C@@H](C)O)NC1=O)[C@@H](C)O)C(C)C [Ex. 219] (I: Ac-VTYCE[dDab]SWCVAT-NH2 / II: [Dab]T[Dap][Dab][Dab][dL]L[Dab][Dab]T; disulfide I:4-I:9; amide I:5-II:N; lactam II:4-II:C)	0/3 died at 2 × 30 mg/kg	0.5 (≈ 0.209 µM)	0.0625 (≈ 0.0261 µM)	0.03125 (≈ 0.013 µM)	0.25 (≈ 0.104 µM)	0.125 (≈ 0.0521 µM)	0.125 (≈ 0.0521 µM)	0.125 (≈ 0.0521 µM)	0.03125 (≈ 0.013 µM)	<1					
CC(=O)N[C@H](C(=O)N[C@H]1CSSC[C@@H](C(=O)N[C@@H](CO)C(N)=O)NC(=O)[C@H](C(C)C)NC(=O)[C@H](CCC(=O)O)NC(=O)[C@H](Cc2c[nH]c3ccccc23)NC(=O)[C@H](CO)NC(=O)[C@@H](CCN)NC(=O)[C@H](CCC(=O)N[C@@H](CCN)C(=O)N[C@H](C(=O)N[C@@H](CN)C(=O)N[C@H]2CCNC(=O)[C@H]([C@@H](C)O)NC(=O)[C@H](CCN)NC(=O)[C@H](CCN)NC(=O)[C@H](CC(C)C)NC(=O)[C@@H](CC(C)C)NC(=O)[C@H](CCN)NC2=O)[C@@H](C)O)NC(=O)[C@H](CCN)NC(=O)[C@H](Cc2ccc(O)cc2)NC1=O)C(C)C [Ex. 150] (I: Ac-VCY[Dab]E[dDab]SWEVCS-NH2 / II: [Dab]T[Dap][Dab][Dab][dL]L[Dab][Dab]T; disulfide I:2-I:11; amide I:5-II:N; lactam II:4-II:C)	0/3 died at 2 × 30 mg/kg	0.5 (≈ 0.205 µM)	0.125 (≈ 0.0512 µM)	0.03125 (≈ 0.0128 µM)	0.25 (≈ 0.102 µM)	0.125 (≈ 0.0512 µM)	0.125 (≈ 0.0512 µM)	0.125 (≈ 0.0512 µM)	0.0625 (≈ 0.0256 µM)	<1					
CC(C)C[C@@H]1NC(=O)[C@@H](CC(C)C)NC(=O)[C@H](CCN)NC(=O)[C@@H](NC(=O)[C@H](CN)NC(=O)[C@@H](NC(=O)[C@H](CCN)NC(=O)CC[C@@H]2NC(=O)[C@H](CCN)NC(=O)[C@H](Cc3ccc(O)cc3)NC(=O)[C@@H](NC(=O)[C@@H](O)C(C)C)C(C)(C)SSC[C@@H](C(=O)N[C@@H](CO)C(N)=O)NC(=O)[C@H](C(C)C)NC(=O)[C@H](CO)NC(=O)[C@H](Cc3c[nH]c4ccccc34)NC(=O)[C@H](CO)NC(=O)[C@@H](CCN)NC2=O)[C@@H](C)O)CCNC(=O)[C@H]([C@@H](C)O)NC(=O)[C@H](CCN)NC(=O)[C@H](CCN)NC1=O [Ex. 340] (I: H-[Hiv][Pen]Y[Dab]E[dDab]SWSVCS-NH2 / II: [Dab]T[Dap][Dab][Dab][dL]L[Dab][Dab]T; disulfide I:2-I:11; amide I:5-II:N; lactam II:4-II:C)		0.25 (≈ 0.105 µM)			0.125 (≈ 0.0524 µM)	0.125 (≈ 0.0524 µM)		0.0625 (≈ 0.0262 µM)		<1	0/3 died at 2 × 40 mg/kg	0.0625	0.03125	0.25	0.0625
CC[C@@H]1NC(=O)[C@@H](CC(C)C)NC(=O)[C@H](CCN)NC(=O)[C@@H](NC(=O)[C@H](CN)NC(=O)[C@@H](NC(=O)[C@H](CCN)NC(=O)CC[C@@H]2NC(=O)[C@H](CCN)NC(=O)[C@H](Cc3ccc(O)cc3)NC(=O)[C@@H](NC(=O)[C@@H](NC(C)=O)C(C)C)CSSC[C@@H](C(=O)N[C@@H](CO)C(N)=O)NC(=O)[C@H]([C@@H](C)CC)NC(=O)[C@H](CO)NC(=O)[C@H](Cc3c[nH]c4ccccc34)NC(=O)[C@H](CO)NC(=O)[C@@H](CCN)NC2=O)[C@@H](C)O)CCNC(=O)[C@H]([C@@H](C)O)NC(=O)[C@H](CCN)NC(=O)[C@H](CCN)NC1=O [Ex. 338] (I: Ac-VCY[Dab]E[dDab]SWSICS-NH2 / II: [Dab]T[Dap][Dab][Dab][dL][Abu][Dab][Dab]T; disulfide I:2-I:11; amide I:5-II:N; lactam II:4-II:C)		0.125 (≈ 0.0524 µM)			0.0625 (≈ 0.0262 µM)	0.0625 (≈ 0.0262 µM)		0.0625 (≈ 0.0262 µM)		<1	0/3 died at 2 × 40 mg/kg	0.03125	0.03125	0.125	0.03125
CC[C@@H]1NC(=O)[C@@H](CC(C)C)NC(=O)[C@H](CCN)NC(=O)[C@@H](NC(=O)[C@H](CCN)NC(=O)[C@@H](NC(=O)[C@H](CCN)NC(=O)CC[C@@H]2NC(=O)[C@H](CCN)NC(=O)[C@H](Cc3ccc(O)cc3)NC(=O)[C@@H](NC(=O)[C@@H](NC(C)=O)C(C)C)CSSC[C@@H](C(=O)N[C@@H](CO)C(N)=O)NC(=O)[C@H](C(C)C)NC(=O)[C@H](CO)NC(=O)[C@H](Cc3c[nH]c4ccccc34)NC(=O)[C@H](CO)NC(=O)[C@@H](CCN)NC2=O)[C@@H](C)O)CCNC(=O)[C@H]([C@@H](C)O)NC(=O)[C@H](CCN)NC(=O)[C@H](CCN)NC1=O [Ex. 332] (I: Ac-VCY[Dab]E[dDab]SWSVCS-NH2 / II: [Dab]T[Dab][Dab][Dab][dL][Abu][Dab][Dab]T; disulfide I:2-I:11; amide I:5-II:N; lactam II:4-II:C)		0.5 (≈ 0.21 µM)			0.25 (≈ 0.105 µM)	0.125 (≈ 0.0524 µM)		0.25 (≈ 0.105 µM)		2	0/3 died at 2 × 40 mg/kg	0.0625	0.03125	0.25	0.0625
CC(=O)N[C@H](C(=O)N[C@H]1CSSC[C@@H](C(=O)N[C@@H](CO)C(N)=O)NC(=O)[C@H](C(C)C)NC(=O)[C@H](CO)NC(=O)[C@H](Cc2c[nH]c3ccccc23)NC(=O)[C@H](CCC(=O)N[C@@H](CCN)C(=O)N[C@H](C(=O)N[C@@H](CN)C(=O)N[C@H]2CCNC(=O)[C@H]([C@@H](C)O)NC(=O)[C@H](CCN)NC(=O)[C@H](CCN)NC(=O)[C@H](CC(C)C)NC(=O)[C@@H](CC(C)C)NC(=O)[C@H](CCN)NC2=O)[C@@H](C)O)NC(=O)[C@@H](CCN)NC(=O)[C@H](C)NC(=O)[C@H](CCN)NC(=O)[C@H](Cc2ccc(O)cc2)NC1=O)C(C)C [Ex. 361] (I: Ac-VCY[Dab]A[dDab]EWSVCS-NH2 / II: [Dab]T[Dap][Dab][Dab][dL]L[Dab][Dab]T; disulfide I:2-I:11; amide I:7-II:N; lactam II:4-II:C)		0.125 (≈ 0.0525 µM)			0.125 (≈ 0.0525 µM)	0.0625 (≈ 0.0262 µM)		0.0625 (≈ 0.0262 µM)		<1	0/3 died at 2 × 40 mg/kg	0.0625	0.0625	0.125	0.0625
